Data reported in US10487072B2, “Substituted imidazoles as melanocortin receptor agonists” (MITSUBISHI TANABE PHARMA CORPORATION, priority 2015, dated 2019).
Where a name gives a salt, the structure may show the parent alone.

Experiments:
Human MC1R = target: T1, Human MC1R (Homo sapiens, UniProt Q01726); experiment: Human MC1R agonistic activity measurement (cAMP assay) using human melanoma cell line HBL; type: cell-based; conditions: HBL cells; for Emax: 0.5 h, Intrinsic Activity, vehicle cAMP = 0%, αMSH at 10^-6 M = 100%, read-out: Human MC1R IA %; for EC50: intracellular cAMP, 37° C. for 30 minutes
T1 construct: endogenous in cells; host or cells: human melanoma cell line HBL
Procedure: (1) Method for Culturing Cells
Human MC1R agonistic activity measurement was carried out by using human melanoma cell line HBL. Culture of HBL: F-10 Nutrient Mixture comprising 10% FCS and Penicillin-streptomycin was used in the culture.
(2) cAMP Assay and Data Calculation
Each compound solution having each concentration was mixed with a cAMP assay buffer (HBSS (Hank's Balanced Salt Solution) comprising 10 mM HEPES and 0.1% BSA), and dispensed into a 96 well plate. HBL was suspended into a cAMP assay buffer comprising 0.5 mM IBMX so that the concentration became 5×10^4/mL, and the resulting suspension was dispensed into the above 96 well plate, then mixed, and left to stand at 37° C. for 30 minutes, and then the intracellular cAMP concentration was measured by a fluorescence method using Envision (ex. 320 nm, em. 590 nm and 665 nm). Each ratio value (665 nm measurement value/590 nm measurement value×10,000) was calculated from the resulting data, and the quantitative value of each cAMP concentration was calculated by using Prism 5.02, and induction % value (% of each sample when the average concentration value of cAMP of vehicle was set to be 0% and the average concentration value of cAMP of αMSH at 10^−6 M was set to be 100%) was calculated, and EC50 value and Intrinsic Activity (IA) % value were calculated.

human MC4R = human MC4R (Homo sapiens, UniProt P32245); experiment: human MC4R agonistic activity; type: cell-based
Chain of human MC4R (P32245 whole entry): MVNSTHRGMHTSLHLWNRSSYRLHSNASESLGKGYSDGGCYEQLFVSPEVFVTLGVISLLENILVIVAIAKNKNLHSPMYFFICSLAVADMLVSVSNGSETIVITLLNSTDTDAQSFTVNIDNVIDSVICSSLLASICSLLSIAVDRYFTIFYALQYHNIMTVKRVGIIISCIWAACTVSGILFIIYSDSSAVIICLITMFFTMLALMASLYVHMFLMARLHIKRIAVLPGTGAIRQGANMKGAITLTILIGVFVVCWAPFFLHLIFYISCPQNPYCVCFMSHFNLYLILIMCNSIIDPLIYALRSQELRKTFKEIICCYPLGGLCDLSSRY

T1 sequence (Q01726 whole entry): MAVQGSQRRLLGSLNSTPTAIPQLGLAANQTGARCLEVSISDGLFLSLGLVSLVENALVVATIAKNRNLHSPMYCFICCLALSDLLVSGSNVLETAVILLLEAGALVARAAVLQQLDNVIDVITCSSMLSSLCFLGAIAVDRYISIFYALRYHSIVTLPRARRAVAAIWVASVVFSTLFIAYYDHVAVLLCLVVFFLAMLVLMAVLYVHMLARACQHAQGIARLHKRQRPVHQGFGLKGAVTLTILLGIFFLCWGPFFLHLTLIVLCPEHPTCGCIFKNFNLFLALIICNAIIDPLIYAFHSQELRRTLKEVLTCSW

Question: What does the source list for `COC(C)(C)CCCN1C[C@@H](c2ccc(F)cc2F)[C@](F)(C(=O)Nc2nccn2Cc2ccc(C)cc2N2CCC(C(=O)O)CC2)C1` [Example 13, 1-(2-{[2-({[(3R,4R)-4-(2,4-difluorophenyl)-3-fluoro-1-(4-methoxy-4-methylpentyl)pyrrolidin-3-yl]carbonyl}amino)-1H-imidazol-1-yl]methyl}-5-methylphenyl)piperidine-4-carboxylic acid]?
Answer: Emax (Human MC1R): 89%; EC50 (Human MC1R): 22 nM

Question: Which results are given for `O=C(O)C1CCN(c2cc(C(F)(F)F)ccc2Cn2ccnc2NC(=O)[C@]2(F)CN(C3CCCC3)C[C@H]2c2ccc(F)cc2F)CC1` [Example 16, 1-[2-{[2-({[(3R,4R)-1-cyclopentyl-4-(2,4-difluorophenyl)-3-fluoropyrrolidin-3-yl]carbonyl}amino)-1H-imidazol-1-yl]methyl}-5-(trifluoromethyl)phenyl]piperidin-4-carboxylic acid]?
Answer: Emax (Human MC1R): 88%; EC50 (Human MC1R): 6.7 nM

Question: With `COC(C)(C)CCCN1C[C@@H](c2ccc(F)cc2F)[C@](F)(C(=O)Nc2nccn2Cc2ccc(C(F)(F)F)cc2N2CCC(C(=O)O)CC2)C1` [Example 19, 1-[2-{[2-({[(3R,4R)-4-(2,4-difluorophenyl)-3-fluoro-1-(4-methoxy-4-methylpentyl)pyrrolidin-3-yl]carbonyl}amino)-1H-imidazol-1-yl]methyl}-5-(trifluoromethyl)phenyl]piperidine-4-carboxylic acid] as the compound, how does the Emax (Human MC1R) read?
Answer: 83%

Question: And the EC50 (Human MC1R)?
Answer: 3.5 nM

Question: With `O=C(O)C1CCN(c2cc(C(F)(F)F)ccc2Cn2ccnc2NC(=O)[C@]2(F)CN(CCCS(=O)(=O)N3CCCC3)C[C@H]2c2ccc(F)cc2F)CC1` [Example 26, 1-[2-({2-[({(3R,4R)-4-(2,4-difluorophenyl)-3-fluoro-1-[3-(pyrrolidin-1-ylsulfonyl)propyl]pyrrolidin-3-yl}carbonyl)amino]-1H-imidazol-1-yl}methyl)-5-(trifluoromethyl)phenyl]piperidine-4-carboxylic acid] as the compound, how does the Emax (Human MC1R) read?
Answer: 97%

Question: What about the EC50 (Human MC1R) of the same compound?
Answer: 7.6 nM

Question: Which results are given for `CN(C)C(=O)CCCN1CC(c2ccc(F)cc2F)C(C(=O)Nc2nccn2Cc2ccc(C(F)(F)F)cc2N2CCC(C(=O)O)CC2)(C(F)(F)F)C1` (stereo not drawn) [Example 28]?
Answer: Emax (Human MC1R): 91%; EC50 (Human MC1R): 25 nM

Question: Which EC50 (Human MC1R) does the source give for `Cc1ccc(Cn2ccnc2NC(=O)[C@@H]2CN(CC[C@H]3Cc4ccccc4CN3)C[C@H]2c2ccc(F)cc2F)c(N2CCC(C(=O)O)CC2)c1` [Example 32, 1-(2-{[2-({[(3S,4R)-4-(2,4-difluorophenyl)-1-{2-[(3R)-1,2,3,4-tetrahydroisoquinolin-3-yl]ethyl}pyrrolidin-3-yl]carbonyl}amino)-1H-imidazol-1-yl]methyl}-5-methylphenyl)piperidine-4-carboxylic acid tetrahydrochloride] here?
Answer: 2.8 nM

Question: What about the EC50 (human MC4R) of the same compound?
Answer: 557 nM

Question: What does the source list for `CC(C)(C)N1C[C@@H](c2ccc(F)cc2)[C@](F)(C(=O)Nc2nccn2Cc2ccc(C(F)(F)F)cc2N2CCC(C(=O)O)CC2)C1` [Example 43, 1-[2-{[2-({[(3R,4R)-1-tert-butyl-3-fluoro-4-(4-fluorophenyl)pyrrolidin-3-yl]carbonyl}amino)-1H-imidazol-1-yl]methyl}-5-(trifluoromethyl)phenyl]piperidine-4-carboxylic acid]?
Answer: Emax (Human MC1R): 108%; EC50 (Human MC1R): 6 nM

Question: Which Emax (Human MC1R) does the source give for `CC(C)c1ccc(Cn2ccnc2NC(=O)[C@]2(F)CN(C(C)(C)C)C[C@H]2c2ccc(F)cc2)c(N2CCC(C(=O)O)CC2)c1` [Example 49, 1-[2-{[2-({[(3R,4R)-1-tert-butyl-3-fluoro-4-(4-fluorophenyl)pyrrolidin-3-yl]carbonyl}amino)-1H-imidazol-1-yl]methyl}-5-(propan-2-yl)phenyl]piperidine-4-carboxylic acid] here?
Answer: 96%

Question: What about the EC50 (Human MC1R) of the same compound?
Answer: 2 nM

Question: Which Emax (Human MC1R) does the source give for `COc1ccc([C@@H]2CN(C(C)(C)C)C[C@@]2(F)C(=O)Nc2nccn2Cc2ccc(C(F)(F)F)cc2N2CCC(C(=O)O)CC2)cc1` [Example 52, 1-[2-{[2-({[(3R,4R)-1-tert-butyl-3-fluoro-4-(4-methoxyphenyl)pyrrolidin-3-yl]carbonyl}amino)-1H-imidazol-1-yl]methyl}-5-(trifluoromethyl)phenyl]piperidine-4-carboxylic acid] here?
Answer: 118%

Question: What about the EC50 (Human MC1R) of the same compound?
Answer: 1.6 nM

Question: For `COc1ccc([C@@H]2CN(C(C)(C)C)C[C@@]2(F)C(=O)Nc2nccn2Cc2ccc(C(C)C)cc2N2CCC(C(=O)O)CC2)cc1` [Example 54, 1-[2-{[2-({[(3R,4R)-1-tert-butyl-3-fluoro-4-(4-methoxyphenyl)pyrrolidin-3-yl]carbonyl}amino)-1H-imidazol-1-yl]methyl}-5-(propan-2-yl)phenyl]piperidine-4-carboxylic acid], which Emax (Human MC1R) is on record?
Answer: 109%

Question: And the EC50 (Human MC1R)?
Answer: 2.8 nM

Question: With `Cc1ccc(Cn2ccnc2NC(=O)[C@@H]2CN(C3(C)CCN(CCO)CC3)C[C@H]2c2ccc(F)cc2F)c(N2CCOCC2)c1` [Example 64, (3S,4R)-4-(2,4-difluorophenyl)-1-[1-(2-hydroxyethyl)-4-methylpiperidin-4-yl]-N-{1-[4-methyl-2-(morpholin-4-yl)benzyl]-1H-imidazol-2-yl}pyrrolidine-3-carboxamide] as the compound, how does the Emax (Human MC1R) read?
Answer: 79%

Question: What about the EC50 (Human MC1R) of the same compound?
Answer: 2.3 nM

Question: Which results are given for `CC(C)(C)N1C[C@@H](C(=O)Nc2nccn2CC2(N3CCOCC3)CCCCC2)[C@H](c2ccc(F)cc2F)C1` [Example 70]?
Answer: Emax (Human MC1R): 58%; EC50 (Human MC1R): 83 nM

Question: What does the source list for `Cc1ccc(Cn2ccnc2NC(=O)[C@@H]2CN(c3ccnc(C)c3)C[C@H]2c2ccc(F)cc2F)c(N2CCOCC2)c1` [Example 72]?
Answer: Emax (Human MC1R): 66%; EC50 (Human MC1R): 20 nM

Question: Which results are given for `CC(C)(C)N1C[C@@H](c2ccc(F)cn2)[C@](F)(C(=O)Nc2nccn2Cc2ccc(C(F)(F)F)nc2N2CCOCC2)C1` [Example 80]?
Answer: Emax (Human MC1R): 76%; EC50 (Human MC1R): 68 nM

Question: For `Cc1ccc(Cn2ccnc2NC(=O)[C@@H]2CN(C(C)(C)C)C[C@H]2c2ccc(F)cc2F)c(N2CCC(C(=O)NS(=O)(=O)N(C)C)CC2)c1` [Example 85, 1-(2-{[2-({[(3S,4R)-1-tert-butyl-4-(2,4-difluorophenyl)pyrrolidin-3-yl]carbonyl}amino)-1H-imidazol-1-yl]methyl}-5-methylphenyl)-N-(dimethylsulfamoyl)piperidine-4-carboxamide trihydrochloride], which Emax (Human MC1R) is on record?
Answer: 98%

Question: What about the EC50 (Human MC1R) of the same compound?
Answer: 16 nM
